Data reported in ChEMBL document CHEMBL1201862, “PubChem BioAssay data set” (2004).
Several values for one entry are separate records, joined by “and”; a condition that tells them apart may be missing. Equal entries are not always repeated.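 96-well plates; 48 h exposure; 5 concentrations. Endpoints by linear interpolation between flanking doses. Not reached: highest tested concentration assigned. The concentration for 50% growth inhibition is given as GI50.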 Activity calls are given as the source filed them. No stated cut-off is given here; in the data, active = GI50 up to about 1.1 µM and inactive = higher.

Legend:
Assay in all cases: growth of human tumour cells (NCI), 48 h
ACHN = system: ACHN
CCRF-CEM = system: CCRF-CEM
COLO 205 = system: COLO 205
EKVX = system: EKVX
HCT-116 = system: HCT-116
IGROV-1 = system: IGROV-1
NCI-H226 = system: NCI-H226
OVCAR-5 = system: OVCAR-5
SF-539 = system: SF-539
SK-MEL-28 = system: SK-MEL-28
SNB-75 = system: SNB-75
UO-31 = system: UO-31
SR = system: SR
DU-145 = system: DU-145

Measured: GI50

O=c1c2ccccc2c(=O)n2n1CC=CC2
inactive: ACHN > 100 µM | CCRF-CEM > 100 µM | COLO 205 > 100 µM | EKVX > 100 µM | HCT-116 > 100 µM | IGROV-1 > 100 µM | NCI-H226 > 100 µM | OVCAR-5 > 100 µM | SF-539 > 100 µM | SK-MEL-28 > 100 µM | SNB-75 > 100 µM | UO-31 > 100 µM

CCOc1ccc(/N=N/c2c(-c3ccccc3)nn(C(=O)CC(=O)Nc3ccccc3Cl)c2-c2ccccc2)cc1
inactive: ACHN 33.3 µM | CCRF-CEM 25.4 µM | COLO 205 64.9 µM | EKVX 44 µM | HCT-116 35.6 µM | IGROV-1 > 100 µM | NCI-H226 65.9 µM | OVCAR-5 > 100 µM | SF-539 58.3 µM | SK-MEL-28 27.7 µM | SNB-75 21.2 µM | SR 72.8 µM | UO-31 28.9 µM

Clc1cccc(C2SCc3nc4ccccc4n32)c1Cl (stereo unspecified)
inactive: ACHN 20.8 µM | CCRF-CEM 19.1 µM | COLO 205 19.8 µM | EKVX 16.2 µM | HCT-116 18.6 µM | IGROV-1 16.6 µM | OVCAR-5 13.9 µM | SF-539 17.2 µM | SK-MEL-28 21.1 µM | SNB-75 4.51 µM | UO-31 13 µM

O=CC1=CCCN(CCc2c[nH]c3ccccc23)C1
inactive: ACHN 70.6 µM | CCRF-CEM 23.4 µM | COLO 205 77.6 µM | EKVX 84.7 µM | HCT-116 28.2 µM | IGROV-1 86.5 µM | NCI-H226 46.3 µM | OVCAR-5 71.3 µM | SF-539 54 µM | SK-MEL-28 11.9 µM | SR 11.8 µM

COc1c(-c2ccccc2)nc2ccc(Oc3ccccc3)nn12
inactive: ACHN > 58.7 µM | CCRF-CEM 8.65 µM | COLO 205 > 44.7 µM | EKVX > 100 µM | HCT-116 13.2 µM | IGROV-1 > 93.8 µM | NCI-H226 29.7 µM | OVCAR-5 > 77.3 µM | SF-539 > 59.4 µM | SK-MEL-28 > 51.8 µM | SNB-75 > 57.5 µM | SR 13.8 µM | UO-31 > 61.8 µM

O=C(Cc1nc2ccccc2s1)C(=O)Nc1ccccc1C(F)(F)F
inactive: ACHN > 100 µM | CCRF-CEM > 100 µM | COLO 205 > 100 µM | EKVX > 100 µM | HCT-116 > 100 µM | IGROV-1 > 100 µM | NCI-H226 > 100 µM | OVCAR-5 > 100 µM | SF-539 > 100 µM | SK-MEL-28 > 100 µM | SNB-75 25.1 µM | UO-31 > 100 µM

CCOC(=O)C1C(=O)C(C(=O)OCC)C(c2ccccc2)N(C)C1c1ccccc1 (stereo unspecified)
inactive: ACHN > 100 µM | CCRF-CEM > 100 µM | COLO 205 > 100 µM | EKVX > 100 µM | HCT-116 58.2 µM | IGROV-1 > 100 µM | NCI-H226 > 100 µM | OVCAR-5 > 100 µM | SF-539 > 100 µM | SK-MEL-28 > 100 µM | SNB-75 > 100 µM | SR > 100 µM | UO-31 > 100 µM

Nc1nc2c3nc(Nc4ccccc4)sc3nc(=O)n2c2sc(Nc3ccccc3)nc12
inactive: ACHN > 100 µM | CCRF-CEM > 100 µM | COLO 205 > 100 µM | EKVX > 100 µM | HCT-116 > 100 µM | IGROV-1 > 100 µM | NCI-H226 > 100 µM | SF-539 > 100 µM | SK-MEL-28 > 100 µM | SNB-75 > 100 µM | SR > 100 µM | UO-31 > 100 µM

O=[N+]([O-])c1ccc2occ3c2c1CCC3
inactive: ACHN > 100 µM | CCRF-CEM > 100 µM | COLO 205 > 100 µM | EKVX > 100 µM | HCT-116 > 100 µM | IGROV-1 > 100 µM | NCI-H226 40 µM | OVCAR-5 86.1 µM | SF-539 > 100 µM | SK-MEL-28 > 100 µM | SNB-75 24.4 µM | SR > 100 µM | UO-31 71.6 µM

CC(=O)OC1C/C(C)=C/CCC(C)/C=C/C2(C)CCC(C(C)(C)O)C12 (stereo unspecified)
inactive: ACHN 36 µM | CCRF-CEM 28.6 µM | COLO 205 39.8 µM | EKVX 63.2 µM | HCT-116 26.2 µM | IGROV-1 36.8 µM | NCI-H226 45.1 µM | OVCAR-5 > 100 µM | SF-539 > 100 µM | SK-MEL-28 72.1 µM | SNB-75 40.7 µM | SR 18.6 µM | UO-31 37.3 µM

O=C1C=Cc2c(-c3ccccc3)oc3cccc1c23
inactive: ACHN 13.2 µM | CCRF-CEM 15 µM | COLO 205 15.8 µM | EKVX 3.19 µM | HCT-116 16.9 µM | IGROV-1 15.8 µM | NCI-H226 11.3 µM | OVCAR-5 26.4 µM | SF-539 12 µM | SK-MEL-28 56.9 µM | SNB-75 4.33 µM | SR 10.1 µM | UO-31 6.35 µM

C1CCN(c2nc(=[N+]3CCCCC3)ss2)CC1
inactive: ACHN > 100 µM | CCRF-CEM 43.7 µM | EKVX > 100 µM | HCT-116 > 100 µM | IGROV-1 > 100 µM | NCI-H226 19.1 µM | OVCAR-5 > 100 µM | SF-539 > 100 µM | SK-MEL-28 84.9 µM | SNB-75 > 100 µM | SR > 100 µM | UO-31 > 100 µM

C/C=C/COC(=O)CO[N+](=O)[O-]
inactive: ACHN > 100 µM | CCRF-CEM > 100 µM | COLO 205 > 100 µM | EKVX > 100 µM | HCT-116 > 100 µM | IGROV-1 > 100 µM | NCI-H226 > 100 µM | OVCAR-5 > 100 µM | SF-539 > 100 µM | SNB-75 > 100 µM | SR > 100 µM | UO-31 > 100 µM

CCCCCCC(C)CCCCCCCCCCC(=O)O (stereo unspecified)
inactive: ACHN > 100 µM | CCRF-CEM > 100 µM | COLO 205 > 100 µM | EKVX > 100 µM | HCT-116 93.5 µM | IGROV-1 > 100 µM | NCI-H226 > 100 µM | OVCAR-5 > 100 µM | SF-539 > 100 µM | SK-MEL-28 > 100 µM | SNB-75 > 100 µM | SR > 100 µM | UO-31 > 100 µM

CCCCC(/C=N/NC(=N)N)CC.Cc1cc(O)c(C(C)C)cc1S(=O)(=O)O
inactive: ACHN 56.6 µM | CCRF-CEM 56.2 µM | COLO 205 18.2 µM | EKVX 30.8 µM | HCT-116 43.3 µM | IGROV-1 92.9 µM | NCI-H226 18.2 µM | SF-539 87.5 µM | SK-MEL-28 40.6 µM | SNB-75 54 µM | SR 21.9 µM | UO-31 59.8 µM

O=C1CCNC(=O)NC1
inactive: ACHN > 100 µM | CCRF-CEM > 100 µM | COLO 205 > 100 µM | EKVX > 100 µM | HCT-116 > 100 µM | IGROV-1 > 100 µM | NCI-H226 > 100 µM | OVCAR-5 > 100 µM | SK-MEL-28 > 100 µM | SNB-75 > 100 µM | SR > 100 µM | UO-31 > 100 µM

O=C1C(=O)N(C(=O)c2ccc(Cl)c(Cl)c2)c2ccccc21
inactive: ACHN > 100 µM | CCRF-CEM > 100 µM | COLO 205 > 100 µM | EKVX > 100 µM | IGROV-1 > 100 µM | NCI-H226 44.9 µM | OVCAR-5 > 100 µM | SF-539 > 100 µM | SK-MEL-28 > 100 µM | SNB-75 58.6 µM | SR > 100 µM | UO-31 > 100 µM

Clc1ccc(C2N3CCCCC3[C@@H]3c4[nH]c5ccccc5c4CCN23)cc1 (stereo partly specified)
inactive: ACHN 39.2 µM | CCRF-CEM 24.9 µM | EKVX 81.7 µM | HCT-116 30.2 µM | IGROV-1 > 100 µM | OVCAR-5 56.8 µM | SF-539 44.1 µM | SK-MEL-28 > 100 µM | SNB-75 80.5 µM | UO-31 49.7 µM

Cc1ccccc1NC(=O)CC1C(=O)Nc2ccccc2[S+]1[O-] (stereo unspecified)
inactive: ACHN 95.3 µM | CCRF-CEM > 100 µM | EKVX > 100 µM | HCT-116 > 100 µM | IGROV-1 88.1 µM | NCI-H226 > 100 µM | OVCAR-5 > 100 µM | SF-539 36.1 µM | SK-MEL-28 > 100 µM | SNB-75 25.6 µM | SR > 100 µM | UO-31 > 100 µM

COC(=O)[C@@H]1[C@H](O)[C@H](C)[C@H](O)[C@@](C)(O)/C=C\C=C(\C)C(=O)Nc2c(C)c(OC(C)=O)c3c(c2O)C(=O)C(C)=C2OCOC(=C23)/C(C)=C/[C@@](C)(O)[C@H](O)[C@@H](C)[C@H]1OC(C)=O
inactive: ACHN 79.4 µM | CCRF-CEM 15.8 µM | COLO 205 72.9 µM and 14.6 µM | DU-145 > 66.8 µM | EKVX 78.2 µM | HCT-116 29.2 µM | IGROV-1 > 100 µM and 53 µM | NCI-H226 > 100 µM and 94.2 µM | OVCAR-5 > 66.8 µM | SF-539 > 100 µM and 50.7 µM | SK-MEL-28 > 100 µM | SNB-75 > 66.8 µM | UO-31 25.9 µM

COc1cc(/C=C/c2cccnc2)cc(OC)c1OC
inactive: ACHN > 100 µM | CCRF-CEM > 100 µM | COLO 205 > 100 µM | EKVX 66.1 µM | HCT-116 > 100 µM | IGROV-1 > 100 µM | NCI-H226 > 100 µM | OVCAR-5 58.9 µM | SF-539 > 100 µM | SK-MEL-28 > 100 µM | SNB-75 45.7 µM | UO-31 36.5 µM
